Legend:
P. aeruginosa ATCC27853 = test: Mouse IN neutropenic lung burden model, Lynovex/Lactose study; format: in vivo, Pseudomonas aeruginosa; settings: CD1 mice, 24 h post-infection
Description: Animals were immunosuppressed/pre-conditioned with either 200 mg/kg or 150 mg/kg cyclophosphamide. Lynovex, chemical name cysteamine, and vehicle were either prepared either as Lynovex and lactose vehicle, or Lynovex and mannitol-based vehicle (both provided by Upperton (Upperton product)). These were prepared for treatment and vehicle-control alone respectively, and in combination. Tobramycin was prepared as an inhalation formulation in lactose. All treatments were administered using a Penn Century device. Phosphate buffered saline (PBS) and Pseudomonas selective agar were required for bacterial tissue burden.
(§1) Male CD1 mice (n =6 for treatment groups, plus five in pre-treatment group, totalling 35 mice) were used in this study. On day −4, the mice were immunosuppressed/pre-conditioned with 200 mg/kg cyclophosphamide intraperitoneally; and with 150 mg/kg cyclophosphamide intraperitoneally on day-1. An infection was established with P. aeruginosa ATCC27853, with an inoculum of 5×10^6 cfu/ml, administered intranasally in a volume of 40 μl following anaesthetisation with a ketamine/xylazine anaesthetic cocktail for 15 minutes, for the Lynovex prepared in lactose study, and an inoculum of 4×10^6 for the Upperton Lynovex product.
Treatment. All treatments were administered intratracheally using a Penn Century device.
Lynovex (cysteamine) was administered at 1.5 mg alone, and in combination with lactose at the following concentrations: Lynovex 0.75 mg+2.25 mg lactose powder, Lynovex 1.5 mg+1.5 mg lactose powder, Lynovex 2.25 mg+0.75 mg, along with a vehicle only control of 3 mg lactose. In addition, Tobramycin at 188 μg/dose was administered, as an inhaled formulation which was mixed with lactose to aid measurement. The treatments were administered approximately 5 minutes after infection.
The lung tissue burden of each animal, at the clinical end point of 24 h post-infection, was determined. The lungs were homogenised in 2 ml PBS, serially diluted in PBS and plated onto Pseudomonas selective agar before quantification after 24-48 h at 37° C.

[1] = Mouse weights recorded before and after infection; format: in vivo; settings: infected CD1 mice, Upperton product study (FIG. 6)
Description: as §1
In a different study, Lynovex was administered at the following doses: 3 mg 5% Lynovex and 3 mg 10% Lynovex. Lynovex in combination with Tobramycin as follows: 3 mg 5% Lynovex+Tobramycin 0.188 mg in 1.5 mg vehicle, 3 mg 10% Lynovex+Tobramycin 0.188 mg in 1.5 mg Vehicle (mannitol-based, provided by Upperton) and a Tobramycin only control (0.188 mg/dose in lactose vehicle). The treatments were administered once approximately 10 minutes after infection.
Additionally, mouse weights were recorded before and after infection. Mice treated with vehicle, Lynovex monotherapy or Tobramycin monotherapy lost weight following infection. […]

| Structure (SMILES) | lung burden compared to vehicle (P. aeruginosa ATCC27853; 1.5 mg intratracheal, P=0.0072) | lung burden compared to vehicle (P. aeruginosa ATCC27853; 2.25 mg intratracheal, P=0.0349) | lung burden compared with vehicle-treated mice (P. aeruginosa ATCC27853; 0.188 mg inhalation formulation, intratracheal, P=0.0097 Kruskal Wallis test) | mouse weight following infection [1] |
| --- | --- | --- | --- | --- |
| NCCS [Lynovex, cysteamine] | reduced the lung burden | reduced the lung burden |  |  |
| NC[C@H]1O[C@H](O[C@H]2[C@H](O)[C@@H](O[C@H]3O[C@H](CO)[C@@H](O)[C@H](N)[C@H]3O)[C@H](N)C[C@@H]2N)[C@H](N)C[C@@H]1O [Tobramycin] |  |  | statistically significant reduction in lung burden | lost weight |
